Laboratory results reported in PMC6739215, “One-bead one-compound combinatorial library derived targeting ligands for detection and treatment of oral squamous cancer” (Oncotarget, 2019).
“Also recorded” adds a separate entry of the source. Where two headings read alike, the source gives them in different places.

Assays:
[1] = system: HSC-3 cells and MOK-101 cells; assay: Peptide induced cell uptake assay (confocal); format: cell-based, human; conditions: HSC-3 and MOK-101 cells, up to 3 hours, cytoplasm and nucleus
Method: Peptide induced cell uptake assay was used to investigate endocytic uptake of the targeting peptide by live OSC cells. Biotinylated LLY13 was pre-incubated (50 μM) with streptavidin-Alexa488 (1mg/mL) for 2 hours at room temperature and then at 4° C overnight to form the biotin-peptides/streptavidin-Alexa488 complex. Oral cancer cells of HSC-3 cells and MOK-101 were seeded in chamber slides at a concentration of 2.3 × 10^4 cells. After 60% confluency, biotin-peptides-streptavidin-Alexa488 complexes were added at different time intervals (30 min, one hour, two hours and three hours). By the end of experiments, 1:2000 dilution of DAPI was added to the specimens. Peptide induced endocytic uptake of cancer cells was observed under confocal laser scanning microscope.

[2] = system: normal human keratinocyte (NHK) cells; assay: MTS assay evaluation of cytotoxicity; format: cell-based; conditions: 48 hours treatment, up to 50 μM
Method: MTS assay was used to evaluate the potential cytotoxicity of peptides against normal human keratinocytes. Briefly, 2 × 10^3 NHK cells were seeded in 96 well tissue culture plates and analysis was performed 48 hours after treatment with LLY12 and LLY13 by adding 20 μL per well of the tetrazolium salt MTS, 3-(4,5-dimethylthiazol-2-yl)-5-(3-carboxymethoxyphenyl)-2-(4-sulfophenyl)-2H-tetrazolium for 2 hours at 37° C. The 96 well plates were read on a VERSA max tunable microplate reader at 490 nm. Similar to the MTT assay, the reduction of MTS solutions to formazan reflects mitochondrial activity and cell viability by proxy.

[3] = system: human oral cancer cells HSC-3; assay: Flow cytometry study of binding affinity of ligands; conditions: HSC-3 cells; for Kd: biotinylated peptide followed by streptavidin-PE
Method: Flow cytometry was employed to compare the binging affinity of LLY12 and LLY13 [25–27]. Confluent tumor cells (80–90%) were dissociated with 0.05% trypsin-EDTA and neutralized with culture medium. After washed three times with F10 buffer, containing PBS with 10% FBS and 1 mM MnCl2 , the human oral cancer cells HSC-3 (3 × 10^5) were added with different concentration of biotinylated LLY12 and LLY13 in 50 μL F10 media for 30 minutes on ice. Then each sample was washed three times with 1 mL PBS containing 1% FBS. Samples thereafter were incubated with a 1:500 dilution of streptavidin-phycoerythrin (1 mg/mL) for 30 min on ice followed by a single wash with 1 mL of PBS containing 1% FBS. Finally, the samples in PBS were analyzed by flow cytometry and the mean fluorescence intensity (MFI) was acquired for each individual sample.

Row | Substance | cellular uptake (internalization) by live OSC cells [1] | cytotoxicity (MTS assay) [2] | Kd ([3]; read-out: Kd value) [nM] | Bmax value (maximum binding capacity) ([3]; flow cytometry) | Bmax (maximum binding) ([3]; flow cytometry, Figure 4) [AU] | Kd ([3]; Figure 4, read-out: Kd) [nM] | maximum binding capacity in comparison to LLY12 ([3]; flow cytometry)
1 | cyclic cdG (Nle) G(Hyp) Lc [LLY12] | not observed | no obvious cytotoxicity; also recorded: not cytotoxic | 870 | 248 | 248 |  | 
2 | cyclic cdGYG (Hyp) Wc [LLY13] |  | no obvious cytotoxicity; also recorded: not cytotoxic | 1270 | 764 | 764 | 1230 | around 3 fold
